Reference: patent publication US7531540B2, “Phthalazinone-piperidino-derivatives as PDE4 inhibitors” (Nycomed GmbH, priority 2001, dated 2009)
Structures can show the parent of a compound that is named as a salt.

Tests used:
[1] = test system: PDE4; assay: Inhibition of PDE4 activity ([3H]cAMP hydrolysis, cytosol from human neutrophils); assay type: biochemical; details: 0.5 μM cAMP, Motapizone (1 μM) included to suppress PDE3 activity, 15 min at 37° C.
Method: Method for Measuring Inhibition of PDE4 Activity
PDE4 activity was determined as described by Thompson et al. (Adv Cycl Nucl Res 10: 69-92, 1979) with some modifications (Bauer and Schwabe, Naunyn-Schmiedeberg's Arch Pharmacol 311: 193-198, 1980). At a final assay volume of 200 μl (96 well microtiter plates) the assay mixture contained 20 mM Tris (pH 7.4), 5 mM MgCl2, 0.5 μM cAMP, [^3H]cAMP (about 30,000 cpm/assay), the test compound and an aliquot of cytosol from human neutrophils which mainly contains PDE4 activity as described by Schudt et al. (Naunyn-Schmiedeberg's Arch Pharmacol 344: 682-690, 1991); the PDE3-specific inhibitor Motapizone (1 μM) was included to suppress PDE3 activity originating from contaminating platelets. Serial dilutions of the compounds were prepared in DMSO and further diluted 1:100 (v/v) in the assays to obtain the desired final concentrations of the inhibitors at a DMSO concentration of 1% (v/v) which by itself only slightly affected PDE4 activity.
After preincubation for 5 min at 37° C., the reaction was started by the addition of substrate (cAMP) and the assays were incubated for further 15 min at 37° C. 50 μl of 0.2 N HCl was added to stop the reaction and the assays were left on ice for about 10 min. Following incubation with 25 μg 5′-nucleotidase (Crotalus atrox snake venom) for 10 min at 37° C., the assays were loaded on QAE Sephadex A-25 (1 ml bed volume). The columns were eluted with 2 ml of 30 mM ammonium formiate (pH 6.0) and the eluate was counted for radioactivity. Results were corrected for blank values (measured in the presence of denatured protein) which were below 5% of total radioactivity. […] The IC50 -values for the compounds according to the invention for the inhibition of the PDE4 activity were determined from the concentration-inhibition curves by nonlinear-regression.
The inhibitory values determined for the compounds according to the invention follow from the following table A, in which the numbers of the compounds correspond to the numbers of the examples.

Row | SMILES | melting point | Inhibition of PDE4 acitivity [measured as -logIC50 (mol/l)] [1]
1 | CCOc1ccc(C2=NN(C3CCN(C(=O)c4ccncc4)CC3)C(=O)[C@@H]3CC=CC[C@H]23)cc1OCC.Cl | 66 to 68 °C | 
2 | CCOc1ccc(C2=NN(C3CCN(C(=O)CCCC(=O)O)CC3)C(=O)[C@@H]3CC=CC[C@H]23)cc1OCC [compound 4, 5-{4-[(4aS,8aR)-4-(3,4-Diethoxy-phenyl)-1-oxo-4a,5,8,8a-tetrahydro-1H-phthalazin-2-yl]-piperidin-1-yl}-5-oxo-pentanoic acid] | 133 to 135 °C | 
3 | COc1ccc(C2=NN(C3CCN(c4ccc([N+](=O)[O-])cc4)CC3)C(=O)[C@@H]3CC=CC[C@H]23)cc1OC [compound 11, (4aS,8aR)-4-(3,4-Dimethoxyphenyl)-2-[1-(4-nitro-phenyl)-piperidin-4-yl]-4a,5,8,8a-tetrahydro-2H-phthalazin-1-one] | 196 to 197 °C | 10.34
4 | COc1ccc(C2=NN(C3CCN(CC(=O)NC(C)C)CC3)C(=O)C3CC=CCC23)cc1OC [compound 27, 2-{4-[(4aS,8aR)-4-(3,4-Dimethoxyphenyl)-1-oxo-4a,5,8,8a-tetrahydro-1H-phthalazin-2-yl]-piperidin-1-yl}-2H-isopropyl-acetamide] |  | 10.37
5 | COc1ccc(C2=NN(C3CCN(Cc4ccc(-c5csnn5)cc4)CC3)C(=O)[C@@H]3CC=CC[C@H]23)cc1OC.Cl.Cl [compound 28, (4aS,8aR)-4-(3,4-Dimethoxyphenyl)-2-[1-(4-1,2,3-thiadiazol-4-yl-benzyl)-piperidin-4-yl]-4a,5,8,8a-tetrahydro-2H-phthalazin-1-one dihydrochloride] |  | 10.24
6 | CCN1CCN(C(=O)N2CCC(N3N=C(c4ccc(OC)c(OC)c4)[C@H]4CC=CC[C@H]4C3=O)CC2)C(=O)C1=O [compound 29, 1-(1-{4-[(4aS,8aR)-4-(3,4-Dimethoxyphenyl)-1-oxo-4a,5,8,8a-tetrahydro-1H-phthalazin-2-yl]-piperidin-1-yl}-methanoyl)-4-ethyl-piperazine-2,3-dione] |  | 10.87
7 | COc1ccc(C2=NN(C3CCN(CC(N)=O)CC3)C(=O)C3CC=CCC23)cc1OC [compound 31, 2-{4-[(4aS,8aR)-4-(3,4-Dimethoxyphenyl)-1-oxo-4a,5,8,8a-tetrahydro-1H-phthalazin-2-yl]-piperidin-1-yl}-2H-acetamide hydrochloride] |  | 9.20

Second part, led by results:

Row | melting point | SMILES | Inhibition of PDE4 acitivity [measured as -logIC50 (mol/l)] [1]
8 | 99 to 101 °C | CCOc1ccc(C2=NN(C3CCN(S(=O)(=O)c4ccc(C)cc4)CC3)C(=O)[C@@H]3CC=CC[C@H]23)cc1OCC [compound 1, (4aS,8aR)-4-(3,4-Diethoxyphenyl)-2-[1-(toluene-4-sulfonyl)-piperidin-4-yl]-4a,5,8,8a-tetrahydro-2H-phthalazin-1-one] | 
9 | 145 to 148 °C | CCOc1ccc(C2=NN(C3CCN(C(=O)NC(C)(C)C)CC3)C(=O)[C@@H]3CC=CC[C@H]23)cc1OCC [compound 6, 4-[(4aS,8aR)-4-(3,4-Diethoxyphenyl)-1-oxo-4a,5,8,8a-tetrahydro-1H-phthalazin-2-yl]-piperidine-1-carboxylic acid tert-butylamide] | 
10 | 196 to 197 °C | COc1ccc(C2=NN(C3CCN(Cc4ccncc4)CC3)C(=O)[C@@H]3CC=CC[C@H]23)cc1OC [compound 12, (4aS,8aR)-4-(3,4-Dimethoxyphenyl)-2-(1-pyridin-4-ylmethyl-piperidin-4-yl)-4a,5,8,8a-tetrahydro-2H-phthalazin-1-one] | 10.79
11 | 184 to 185 °C | COc1ccc(C2=NN(C3CCN(C(=O)N4CCOCC4)CC3)C(=O)[C@@H]3CC=CC[C@H]23)cc1OC [compound 13, (4aS,8aR)-4-(3,4-Dimethoxyphenyl)-2-[1-(morpholine-4-carbonyl)-piperidin-4-yl]-4a,5,8,8a-tetrahydro-2H-phthalazin-1-one] | 10.03
12 | 206 °C (dec.) | COc1ccc(C2=NN(C3CCN(CC(=O)c4cc(Cl)c(N)c(Cl)c4)CC3)C(=O)[C@@H]3CC=CC[C@H]23)cc1OC.Cl [compound 14, (4aS,8aR)-2-{1-[2-(4-Amino-3,5-dichloro-phenyl)-2-oxo-ethyl]-piperidin-4-yl}-4-(3,4-dimethoxy-phenyl)-4a,5,8,8a-tetrahydro-2H-phthalazin-1-one hydrochloride] | 10.33
13 | 219 to 220 °C | COc1ccc(C2=NN(C3CCN(c4ncnc5sccc45)CC3)C(=O)[C@@H]3CC=CC[C@H]23)cc1OC [compound 16, (4aS,8aR)-4-(3,4-Dimethoxyphenyl)-2-(1-thieno[2,3-d]pyrimidin-4-yl-piperidin-4-yl)-4a,5,8,8a-tetrahydro-2H-phthalazin-1-one] | 10.50
14 | 264 to 267 °C | COc1ccc(C2=NN(C3CCN(Cc4ccc5ccc(=O)oc5c4)CC3)C(=O)[C@@H]3CC=CC[C@H]23)cc1OC.Cl [compound 18, (4aS,8aR)-4-(3,4-Dimethoxyphenyl)-2-[1-(2-oxo-2H-chromen-7-ylmethyl)-piperidin-4-yl]-4a,5,8,8a-tetrahydro-2H-phthalazin-1-one hydrochloride] | 10.32
15 | 214 to 216 °C | COc1ccc(C2=NN(C3CCN(Cc4ccccn4)CC3)C(=O)[C@@H]3CC=CC[C@H]23)cc1OC.Cl.Cl [compound 24, (4aS,8aR)-4-(3,4-Dimethoxy-phenyl)-2-(1-pyridin-2-ylmethyl-piperidin-4-yl)-4a,5,8,8a-tetrahydro-2H-phthalazin-1-one dihydrochloride] | 10.63
